Measurements from ChEMBL document CHEMBL1201862, “PubChem BioAssay data set” (2004).
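All cell lines were grown in 96-well plates and treated with compound for 48 hours. Here, GI50 denotes the concentration required for 50% inhibition of growth.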 Activity calls are given as the source filed them. Rule as the data show it: active = GI50 up to about 1.1 µM and inactive = higher.

Legend:
Test in all cases: inhibition of tumour cell growth, NCI panel, 48 h
786-0 = system: 786-0
A498 = system: A498
A549 = system: A549
ACHN = system: ACHN
CAKI-1 = system: CAKI-1
CCRF-CEM = system: CCRF-CEM
COLO 205 = system: COLO 205
DLD-1 = system: DLD-1
DMS-114 = system: DMS-114
DMS-273 = system: DMS-273
EKVX = system: EKVX
HCC 2998 = system: HCC 2998
HCT-116 = system: HCT-116
HCT-15 = system: HCT-15
HOP-18 = system: HOP-18
HOP-92 = system: HOP-92
HT-29 = system: HT-29
IGROV-1 = system: IGROV-1
K562 = system: K562
KM12 = system: KM12
LOX IMVI = system: LOX IMVI
LXFL 529 = system: LXFL 529
M14 = system: M14
M19-MEL = system: M19-MEL
MOLT-4 = system: MOLT-4
Malme-3M = system: Malme-3M
NCI-H226 = system: NCI-H226
NCI-H23 = system: NCI-H23
NCI-H460 = system: NCI-H460
NCI-H522 = system: NCI-H522
OVCAR-3 = system: OVCAR-3
OVCAR-8 = system: OVCAR-8
RPMI-8226 = system: RPMI-8226
RXF 393 = system: RXF 393
SF-295 = system: SF-295
SF-539 = system: SF-539
SK-MEL-28 = system: SK-MEL-28
SK-MEL-5 = system: SK-MEL-5
SK-OV-3 = system: SK-OV-3
SN12C = system: SN12C
SNB-75 = system: SNB-75
SNB-78 = system: SNB-78
SW-620 = system: SW-620
TK-10 = system: TK-10
U-251 = system: U-251
UACC-257 = system: UACC-257
UACC-62 = system: UACC-62
UO-31 = system: UO-31

C=C1C(=O)c2cc3c(cc2C(c2cc(OC)c(OC)c(OC)c2)[C@@H]1C(=O)O)OCO3 (stereo partly drawn)
GI50 (786-0): 37 µM (inactive) | GI50 (A498): 32.6 µM (inactive) | GI50 (A549): 80.4 µM (inactive) | GI50 (ACHN): > 100 µM (inactive) | GI50 (CAKI-1): 54.2 µM (inactive) | GI50 (CCRF-CEM): 33 µM (inactive) | GI50 (COLO 205): 39.3 µM (inactive) | GI50 (DLD-1): 55.3 µM (inactive) | GI50 (DMS-114): 36.7 µM (inactive) | GI50 (DMS-273): > 10 µM (inactive) | GI50 (EKVX): > 100 µM (inactive) | GI50 (HCC 2998): > 100 µM (inactive) | GI50 (HCT-116): 48.4 µM (inactive) | GI50 (HCT-15): 38 µM | GI50 (HOP-18): > 100 µM (inactive) | GI50 (HOP-92): 15.5 µM (inactive) | GI50 (HT-29): 37.2 µM (inactive) | GI50 (IGROV-1): 82 µM (inactive) | GI50 (K562): 32.1 µM (inactive) | GI50 (KM12): 44.5 µM (inactive) | GI50 (LOX IMVI): 43.6 µM (inactive) | GI50 (LXFL 529): 51.5 µM (inactive) | GI50 (M14): 28.1 µM (inactive) | GI50 (M19-MEL): 49.1 µM (inactive) | GI50 (MOLT-4): 37.9 µM (inactive) | GI50 (Malme-3M): 50.6 µM (inactive) | GI50 (NCI-H226): > 100 µM (inactive) | GI50 (NCI-H23): 57.7 µM (inactive) | GI50 (NCI-H460): 37.1 µM (inactive) | GI50 (NCI-H522): 28.3 µM (inactive) | GI50 (OVCAR-3): 23.2 µM (inactive) | GI50 (OVCAR-8): > 100 µM (inactive) | GI50 (RPMI-8226): 39.3 µM (inactive) | GI50 (RXF 393): 43.9 µM (inactive) | GI50 (SF-295): 38.3 µM (inactive) | GI50 (SF-539): 63.7 µM (inactive) | GI50 (SK-MEL-28): 69.7 µM (inactive) | GI50 (SK-MEL-5): 50.7 µM (inactive) | GI50 (SK-OV-3): 42.6 µM (inactive) | GI50 (SN12C): 43.1 µM (inactive) | GI50 (SNB-75): 20.5 µM (inactive) | GI50 (SNB-78): 49.1 µM (inactive) | GI50 (SW-620): 53.2 µM (inactive) | GI50 (TK-10): > 100 µM (inactive) | GI50 (U-251): 49.9 µM (inactive) | GI50 (UACC-257): 67 µM (inactive) | GI50 (UACC-62): 27 µM (inactive) | GI50 (UO-31): 58.6 µM (inactive)
